One assay has as its target T1, Human HIF-PHD2 (Homo sapiens, UniProt Q9GZT9).
T1 construct: FLAG-tagged full length PHD2 expressed in and purified from baculovirus-infected Sf9 cells; FLAG; made in house; host or cells: baculovirus-infected Sf9 cells
Description: Inhibition of the hydroxylation of a HIF peptide by PHD2 (time resolved fluorescence, 384-well). Format: biochemical. The conditions noted are these: FLAG-tagged full length PHD2; 0.2 μM 2-oxoglutarate, 0.5 μM HIF-1α peptide; 45 minutes at room temperature; read-out: Human HIF-PHD2 IC50. As to the method: To each well of a 384-well plate, 1 μL of test compounds in DMSO (final concentration ranging from 0.3 nM to 10 uM) were added into 20 μl of assay buffer (50 mM Tris pH 7.4/0.01% Tween-20/0.1 mg/ml bovine serum albumin/10 μM ferrous sulfate/1 mM sodium ascorbate/20 μg/ml catalase) containing 0.15 μg/ml FLAG-tagged full length PHD2 expressed in and purified from baculovirus-infected Sf9 cells. After a 5 min preincubation at room temperature, the enzymatic reactions were initiated by the addition of 4 μL of substrates {final concentrations of 0.2 μM 2-oxoglutarate and 0.5 μM HIF-1α peptide biotinyl-[…] […] After incubation for 45 minutes at room temperature, the reactions were terminated by the addition of a 25 μL quench/detection mix to a final concentration of 1 mM ortho-phenanthroline, 0.1 mM EDTA, 0.5 nM anti-(His)6 LANCE reagent (Perkin-Elmer Life Sciences), 100 nM AF647-labeled streptavidin (Invitrogen), and 2 μg/ml (His)6-VHL complex {S. Tan Protein Expr. Purif.
T1 sequence (Q9GZT9 whole entry): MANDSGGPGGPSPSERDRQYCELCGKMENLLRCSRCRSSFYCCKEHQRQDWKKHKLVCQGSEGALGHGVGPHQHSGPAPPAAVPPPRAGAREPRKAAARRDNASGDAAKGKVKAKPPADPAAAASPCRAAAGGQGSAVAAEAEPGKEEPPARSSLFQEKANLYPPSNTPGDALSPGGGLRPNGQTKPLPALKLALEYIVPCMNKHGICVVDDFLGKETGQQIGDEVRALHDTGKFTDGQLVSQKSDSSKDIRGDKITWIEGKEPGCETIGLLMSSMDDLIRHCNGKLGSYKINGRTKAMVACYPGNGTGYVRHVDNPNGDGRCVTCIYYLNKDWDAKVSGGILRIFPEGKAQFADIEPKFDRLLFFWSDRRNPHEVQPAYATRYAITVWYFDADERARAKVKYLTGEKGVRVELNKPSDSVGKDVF
Take `O=C(O)CNC(=O)c1c(O)c2cc(Cl)cc3c2n(c1=O)CC(c1ccc(C(F)(F)F)cc1)O3` (single isomer, unassigned) [Example 74, 2-(9-Chloro-7-hydroxy-5-oxo-2-(4-(trifluoromethyl)phenyl)-3,5-dihydro-2H-[1,4]oxazino[2,3,4-ij]quinoline-6-carboxamido)acetic acid]: the IC50 was 10 nM.
Consider `N#Cc1ccc(C2Cn3c(=O)c(C(=O)NCC(=O)O)c(O)c4ccc(C(F)(F)F)c(c43)O2)cc1` (single isomer, unassigned) [Example 77, 2-(2-(4-cyanophenyl)-7-hydroxy-5-oxo-10-(trifluoromethyl)-3,5-dihydro-2H-[1,4]oxazino[2,3,4-ij]quinoline-6-carboxamido)acetic acid], for which the IC50 turned out to be 2 nM.
On the same count and under the same terms, next, `O=C(O)CNC(=O)c1c(O)c2c(OC(F)(F)F)ccc3c2n(c1=O)CC(c1ccc(C(F)(F)F)cc1)O3` (single isomer, unassigned) [Example 86, 2-(7-Hydroxy-5-oxo-8-(trifluoromethoxy)-2-(4-(trifluoromethyl)phenyl)-3,5-dihydro-2H-[1,4]oxazino[2,3,4-ij]quinoline-6-carboxamido)acetic acid]: 14 nM.
The same measure, in the same setting: the same measure for `N#Cc1ccc(C2Cn3c(=O)c(C(=O)NCC(=O)O)c(O)c4c(OC(F)(F)F)ccc(c43)O2)cc1` (single isomer, unassigned) [Example 88, 2-(2-(4-Cyanophenyl)-7-hydroxy-5-oxo-8-(trifluoromethoxy)-3,5-dihydro-2H-[1,4]oxazino[2,3,4-ij]quinoline-6-carboxamido)acetic acid]: 8.5 nM; for `O=C(O)CNC(=O)c1c(O)c2cccc3c2n(c1=O)C(c1ccccc1)CC3` (single isomer, unassigned) [Example 130, 2-(1-Hydroxy-3-oxo-5-phenyl-3,5,6,7-tetrahydropyrido[3,2,1-ij]quinoline-2-carboxamido)acetic acid]: 18 nM; for `O=C(O)CNC(=O)c1c(O)c2cccc3c2n(c1=O)C(Cc1ccc(C(F)(F)F)cc1)CO3` (stereo not drawn) [Example 3, 2-(7-Hydroxy-5-oxo-3-(4-(trifluoromethyl)benzyl)-3,5-dihydro-2H-[1,4]oxazino[2,3,4-ij]quinoline-6-carboxamido)acetic acid]: 21 nM.
Consider `N#Cc1cc2c3c(c1)c(O)c(C(=O)NCC(=O)O)c(=O)n3C(Cc1ccc(C(F)(F)F)cc1)CO2` (stereo not drawn) [Example 4, 2-(9-Cyano-7-hydroxy-5-oxo-3-(4-(trifluoromethyl)benzyl)-3,5-dihydro-2H-[1,4]oxazino[2,3,4-ij]quinoline-6-carboxamido)acetic acid], for which the IC50 is 3 nM.
Same read-out and setting: next, `O=C(O)CNC(=O)c1c(O)c2cc(Br)cc3c2n(c1=O)C(Cc1ccc(C(F)(F)F)cc1)CO3` (stereo not drawn) [Example 5, 2-(9-Bromo-7-hydroxy-5-oxo-3-(4-(trifluoromethyl)benzyl)-3,5-dihydro-2H-[1,4]oxazino[2,3,4-ij]quinoline-6-carboxamido)acetic acid]: 18 nM; `CS(=O)(=O)c1cc2c3c(c1)c(O)c(C(=O)NCC(=O)O)c(=O)n3C(Cc1ccc(C(F)(F)F)cc1)CO2` (stereo not drawn) [Example 6, 2-(7-Hydroxy-9-(methylsulfonyl)-5-oxo-3-(4-(trifluoromethyl)benzyl)-3,5-dihydro-2H-[1,4]oxazino[2,3,4-ij]quinoline-6-carboxamido)acetic acid]: 1.7 nM; `Cc1cc2c3c(c1)c(O)c(C(=O)NCC(=O)O)c(=O)n3C(Cc1ccc(C(F)(F)F)cc1)CO2` (stereo not drawn) [Example 7, 2-(7-hydroxy-9-methyl-5-oxo-3-(4-(trifluoromethyl)benzyl)-3,5-dihydro-2H-[1,4]oxazino[2,3,4-ij]quinoline-6-carboxamido)acetic acid]: 37 nM.
Turning to `CC(O)(CO)c1cc2c3c(c1)c(O)c(C(=O)NCC(=O)O)c(=O)n3C(Cc1ccc(C(F)(F)F)cc1)CO2` (stereo not drawn) [Example 8, 2-(9-(1,2-Dihydroxypropan-2-yl)-7-hydroxy-5-oxo-3-(4-(trifluoromethyl)benzyl)-3,5-dihydro-2H-[1,4]oxazino[2,3,4-ij]quinoline-6-carboxamido)acetic acid], the IC50 was found to be 30 nM.
Same read-out and setting: the same measure for `O=C(O)CNC(=O)c1c(O)c2cccc3c2n(c1=O)CC(c1ccc(C(F)(F)F)cc1)C3` (stereo not drawn) [Example 9, 2-(1-Hydroxy-3-oxo-6-(4-(trifluoromethyl)phenyl)-3,5,6,7-tetrahydropyrido[3,2,1-ij]quinoline-2-carboxamido)acetic acid]: 7.2 nM; for `O=C(O)CNC(=O)c1c(O)c2cccc3c2n(c1=O)CC(c1ccc(C(F)(F)F)cc1)O3` (stereo not drawn) [Example 10, 2-(7-Hydroxy-5-oxo-2-(4-(trifluoromethyl)phenyl)-3,5-dihydro-2H-[1,4]oxazino[2,3,4-ij]quinoline-6-carboxamido)acetic acid]: 6.4 nM; for `O=C(O)CNC(=O)c1c(O)c2c(Br)ccc3c2n(c1=O)CC(c1ccc(C(F)(F)F)cc1)O3` (stereo not drawn) [Example 11, 2-(8-Bromo-7-hydroxy-5-oxo-2-(4-(trifluoromethyl)phenyl)-3,5-dihydro-2H-[1,4]oxazino[2,3,4-ij]quinoline-6-carboxamido)acetic acid]: 2.6 nM.
Same read-out and setting: next, `CS(=O)(=O)c1ccc2c3c1c(O)c(C(=O)NCC(=O)O)c(=O)n3CC(c1ccc(C(F)(F)F)cc1)O2` (stereo not drawn) [Example 12, 2-(7-Hydroxy-8-(methylsulfonyl)-5-oxo-2-(4-(trifluoromethyl)phenyl)-3,5-dihydro-2H-[1,4]oxazino[2,3,4-ij]quinoline-6-carboxamido)acetic acid]: 19 nM; `N#Cc1ccc2c3c1c(O)c(C(=O)NCC(=O)O)c(=O)n3CC(c1ccc(C(F)(F)F)cc1)O2` (stereo not drawn) [Example 13, 2-(8-Cyano-7-hydroxy-5-oxo-2-(4-(trifluoromethyl)phenyl)-3,5-dihydro-2H-[1,4]oxazino[2,3,4-ij]quinoline-6-carboxamido)acetic acid]: 1 nM.
Same read-out and setting: the same measure for `O=C(O)CNC(=O)c1c(O)c2cc(Br)cc3c2n(c1=O)CC(c1ccc(C(F)(F)F)cc1)O3` (stereo not drawn) [Example 16, 2-(9-Bromo-7-hydroxy-5-oxo-2-(4-(trifluoromethyl)phenyl)-3,5-dihydro-2H-[1,4]oxazino[2,3,4-ij]quinoline-6-carboxamido)acetic acid]: 4.4 nM.
For the compound `Cc1cc2c3c(c1)c(O)c(C(=O)NCC(=O)O)c(=O)n3CC(c1ccc(C(F)(F)F)cc1)O2` (stereo not drawn) [Example 19, 2-(7-Hydroxy-9-methyl-5-oxo-2-(4-(trifluoromethyl)phenyl)-3,5-dihydro-2H-[1,4]oxazino[2,3,4-ij]quinoline-6-carboxamido)acetic acid], the IC50 amounted to 5.6 nM.
`O=C(O)CNC(=O)c1c(O)c2ccc(Br)c3c2n(c1=O)CC(c1ccc(C(F)(F)F)cc1)O3` (stereo not drawn) [Example 22, 2-(10-Bromo-7-hydroxy-5-oxo-2-(4-(trifluoromethyl)phenyl)-3,5-dihydro-2H-[1,4]oxazino[2,3,4-ij]quinoline-6-carboxamido)acetic acid]: the IC50 was determined as 2.3 nM.

Still in this assay, the particulars now being: FLAG-tagged full length PHD2; 0.2 μM 2-oxoglutarate, 0.5 μM HIF-1α peptide; 45 minutes at room temperature; read-out: MS m/z (M + 1)+ and human HIF-PHD2 IC50.
Regarding `O=C(O)CNC(=O)c1c(O)c2ccc(Cl)c3c2n(c1=O)CC(c1ccc(C(F)(F)F)cc1)O3` (single isomer, unassigned) [Example 73, 2-(10-chloro-7-hydroxy-5-oxo-2-(4-(trifluoromethyl)phenyl)-3,5-dihydro-2H-[1,4]oxazino[2,3,4-ij]quinoline-6-carboxamido)acetic acid], the IC50 came to 2.8 nM.
Still for that read-out and setting: the same measure for `O=C(O)CNC(=O)c1c(O)c2cc(Cl)cc3c2n(c1=O)CC(c1ccc(C(F)(F)F)cc1)O3` (single isomer, unassigned) [Example 75, 2-(9-chloro-7-hydroxy-5-oxo-2-(4-(trifluoromethyl)phenyl)-3,5-dihydro-2H-[1,4]oxazino[2,3,4-ij]quinoline-6-carboxamido)acetic acid]: 12 nM; for `N#Cc1ccc(C2Cn3c(=O)c(C(=O)NCC(=O)O)c(O)c4ccc(C(F)(F)F)c(c43)O2)cc1` (single isomer, unassigned) [Example 78, 2-(2-(4-cyanophenyl)-7-hydroxy-10-(trifluoromethyl)-3,5-dihydro-2H-[1,4]oxazino[2,3,4-ij]quinoline-6-carboxamido)acetic acid]: 7.9 nM; for `O=C(O)CNC(=O)c1c(O)c2c(OC(F)(F)F)ccc3c2n(c1=O)CC(c1ccc(C(F)(F)F)cc1)O3` (single isomer, unassigned) [Example 87, 2-(7-hydroxy-5-oxo-8-(trifluoromethoxy)-2-(4-(trifluoromethyl)phenyl)-3,5-dihydro-2H-[1,4]oxazino[2,3,4-ij]quinoline-6-carboxamido)acetic acid]: 17 nM.
The same measure, in the same setting: the same measure for `N#Cc1ccc(C2Cn3c(=O)c(C(=O)NCC(=O)O)c(O)c4c(OC(F)(F)F)ccc(c43)O2)cc1` (single isomer, unassigned) [Example 89, 2-(2-(4-cyanophenyl)-7-hydroxy-5-oxo-8-(trifluoromethoxy)-3,5-dihydro-2H-[1,4]oxazino[2,3,4-ij]quinoline-6-carboxamido)acetic acid]: 34 nM.

The values are drawn from US9969752B2, “Inhibitors of HIF prolyl hydroxylase” (MERCK SHARP & DOHME CORP., priority 2014, dated 2018).
